Source: patent US20040235855A1, “Phospholipase C inhibitors for use in treating inflammatory disorders” (priority 2003, published 2004)

target: T1, human PLC-β2 (Homo sapiens, UniProt Q00722); test: PLC assay using FlashPlates (96-well, immobilized [3H]PIP2 substrate); type: biochemical; details: purified recombinant human PLC-β2 or cytosolic human PLC-β2; hydrolysis of [3H]PIP2
T1 construct: made in house; host or cells: Sf9 cells (Spodoptera frugiperda), recombinant baculovirus
Text: The hydrolysis of phosphatidylinositol-4,5-bisphosphate (PIP2) by a specific phospholipase C-β2 (PLC-β2) produces two intracellular messengers, diacylglycerol (DAG) and inositol 1,4,5-trisphosphate (IP3), which mediate the activation of protein kinase C and intracellular Ca^2+ release. A conventional organic solvent extraction method is widely used for PLC assays to isolate IP3 from the substrate PIP2. The conventional PLC-β2 assay, however is terminated by addition of acidified organic solvents and subsequent extraction and phase separation. […] Accordingly, a preferred method to test the compounds of the present invention, was developed utilizing a 96-well plate assay for PLC-β2 using immobilized radiolabeled substrate to quantitatively measure the reduction in the substrate level without a need for organic solvent extraction. The automated PLC-β2 assay described herein provides a convenient method for quantitative measurement of phospholipase C activities in a high throughput fashion. Ninety-six well Phospholipid FlashPlates were coated with 0.2 mL of 50 mM Tris/HCl (pH 7.4), 0.01% Ac-BSA and 50,000 cpm of […] (phosphatidylinositol-4,5-bisphosphate) at 4° C. for 72 h. The wells were aspirated and washed twice with PBS. The reactions were conducted directly in the wells in PLC reaction buffer containing 50 mM Tris/HCl (pH 7.2), 2.75 mM EDTA (pH 7.3), 80 mM KCl, 10 mM LiCl, 0.04% DOC and 2 mM CaCl2 in the absence or presence of the purified recombinant human PLC-β2 (prepared as described hereafter) or cytosolic human PLC-β2 from […]. Reduction of radioactivity was monitored by a Packard TopCount instrument (Packard Instrument Company, Conn., USA). […] The cells were grown in Grace's media supplemented with 10% (v/v) fetal bovine serum, 3.3 g/l yeastolate, 3.3 g/l lactalbumin hydrosylate, glutamine (6.4 mM final), 50 μg/ml gentamicin, and 50 μg/ml kanamycin. Suspension of Sf9 cells (1.0×10^6 cells/ml) were infected with 5 pfu/cell of recombinant baculovirus encoding PLC-β2 and incubated at 27° C. for 72 h. The cells were collected by centrifugation (500×g, 7 min, 4° C.) and disrupted by hypotonic lysis buffer containing 20 mM Tris/HCl, pH 7.4, 5 mM MgCl2, 2 mM EGTA, 200 μM PMSF, 200 μM benzamidine and 1 μM pepstatin A. The lysate was sonicated on ice and the nuclei and unbroken cells removed by centrifigation (500×g, 5 min, 4C.). The supernatant was recovered and clarified by centrifugation (34,000 rpm, 60 min, 4C.). The supernatant was used as a crude cytosolic fraction (Paterson, A., Boyer, J. L., Watts, V. J., Morris, A. J., Price, […]. (1995) Concentration of enzyme-dependent activation of PLC β1 and PLC β2 by Gα11 and βγ subunits. Cellular Signalling 7, 709-720). Crude cytosol prepared from Sf9 cells expressing PLC-β2 was purified initially by chromatography on a 10 ml column of Q-Sepharose FF, equilibrated in buffer A (25 mM HEPES, pH 7.2,2 mM DTT, 2 mM EDTA, 2 mM EGTA, 200 μM PMSF, 200 μM benzamidine, 1 μM pepstatin A containing 10 mM NaCl). The column was washed with 20 ml of equilibration buffer and eluted with a 200-ml gradient of 110-410 mM NaCl in buffer A. The fractions containing PLC activity were pooled and diluted with buffer A. The diluted enzyme was applied to a 4 ml column of heparin-SepharoseCL-6B equilibrated in buffer A and the column washed with 70 ml of buffer A. The column was eluted with 80 ml of gradient of 0-1.0 M NaCl in buffer A, the column eluate collected in 3 ml fractions. […]

T1 sequence (Q00722 whole entry): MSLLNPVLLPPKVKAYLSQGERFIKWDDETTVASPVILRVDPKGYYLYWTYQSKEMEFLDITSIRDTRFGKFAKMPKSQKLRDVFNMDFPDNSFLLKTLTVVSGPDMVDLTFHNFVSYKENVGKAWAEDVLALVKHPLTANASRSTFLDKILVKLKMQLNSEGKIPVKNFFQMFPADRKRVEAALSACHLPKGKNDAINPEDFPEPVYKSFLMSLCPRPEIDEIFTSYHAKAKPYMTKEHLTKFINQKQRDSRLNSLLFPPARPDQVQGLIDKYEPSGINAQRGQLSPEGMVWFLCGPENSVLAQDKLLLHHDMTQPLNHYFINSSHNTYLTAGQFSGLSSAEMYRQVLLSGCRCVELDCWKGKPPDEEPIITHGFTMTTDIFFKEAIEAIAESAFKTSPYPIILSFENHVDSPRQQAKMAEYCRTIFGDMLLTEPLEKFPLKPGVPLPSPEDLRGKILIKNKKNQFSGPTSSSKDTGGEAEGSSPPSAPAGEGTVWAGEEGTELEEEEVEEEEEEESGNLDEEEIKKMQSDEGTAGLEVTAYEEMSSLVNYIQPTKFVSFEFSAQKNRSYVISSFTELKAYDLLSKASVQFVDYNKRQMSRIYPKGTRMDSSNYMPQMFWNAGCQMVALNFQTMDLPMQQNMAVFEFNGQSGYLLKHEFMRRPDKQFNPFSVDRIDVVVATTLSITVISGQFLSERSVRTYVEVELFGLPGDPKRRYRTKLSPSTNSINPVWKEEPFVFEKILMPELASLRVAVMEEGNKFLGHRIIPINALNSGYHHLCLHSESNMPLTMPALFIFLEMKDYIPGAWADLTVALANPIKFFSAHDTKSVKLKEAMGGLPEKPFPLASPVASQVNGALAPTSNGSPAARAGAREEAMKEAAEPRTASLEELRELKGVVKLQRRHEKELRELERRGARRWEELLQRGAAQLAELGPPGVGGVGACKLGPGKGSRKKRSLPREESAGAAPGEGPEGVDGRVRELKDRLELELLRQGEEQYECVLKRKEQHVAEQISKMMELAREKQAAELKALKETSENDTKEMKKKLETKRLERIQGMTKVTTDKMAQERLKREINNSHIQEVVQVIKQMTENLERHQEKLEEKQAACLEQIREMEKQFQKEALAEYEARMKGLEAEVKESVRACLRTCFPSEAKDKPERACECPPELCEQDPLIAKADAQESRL

Row | SMILES | IC50 [µM]
1 | CC(C)(C)NC(=O)Nc1cc(C(=O)N2CCNCC2)ccc1N1CCN(C(c2ccccc2)c2ccccc2)CC1 [Cpd 62, N-(1,1-dimethylethyl)-N′-[2-[4-(diphenylmethyl)-1-piperazinyl]-5-(1-piperazinylcarbonyl)phenyl]-urea] | > 25
2 | COc1ccccc1NC(=O)Nc1cc(C(=O)N2CCNCC2)ccc1N1CCN(C(c2ccccc2)c2ccccc2)CC1 [Cpd 59, N-[2-[4-(diphenylmethyl)-1-piperazinyl]-5-(1-piperazinylcarbonyl)phenyl]-N′-(2-methoxyphenyl)-urea] | 5.4
3 | CC(C)C[C@H](NC(=O)c1ccc(N2CCN(C(c3ccccc3)c3ccccc3)CC2)c(NC(=O)Nc2ccccc2)c1)C(=O)O [Cpd 32, N-[4-[4-(diphenylmethyl)-1-piperazinyl]-3-[[(phenylamino)carbonyl]amino]benzoyl]-L-leucine] | 3.9
4 | NC(=O)c1ccc(N2CCCN(C(c3ccc(F)cc3)c3ccc(F)cc3)CC2)c(NC(=O)Nc2ccccc2)c1 [Cpd 81, 4-[4-[bis(4-fluorophenyl)methyl]hexahydro-1H-1,4-diazepin-1-yl]-3-[[(phenylamino)carbonyl]amino]-benzamide] | ~10
5 | COc1ccccc1N1CCN(c2ccc(C(N)=O)cc2NC(=O)Nc2ccccc2)CC1 [Cpd 1, 4-[4-(2-methoxyphenyl)-1-piperazinyl]-3-[[(phenylamino)carbonyl]amino]-benzamide] | 23.4
6 | COc1ccc(NC(=O)Nc2cc(C(N)=O)ccc2N2CCN(C(c3ccc(F)cc3)c3ccc(F)cc3)CC2)cc1 [Cpd 20, 4-[4-[bis(4-fluorophenyl)methyl]-1-piperazinyl]-3-[[[(4-methoxyphenyl)amino]carbonyl]amino]-benzamide] | 4.3
7 | COc1ccccc1NC(=O)Nc1cc(C(N)=O)ccc1N1CCN(C(c2ccc(F)cc2)c2ccc(F)cc2)CC1 [Cpd 17, 4-[4-[bis(4-fluorophenyl)methyl]-1-piperazinyl]-3-[[[(2-methoxyphenyl)amino]carbonyl]amino]-benzamide] | 2.8
8 | O=C(Nc1ccc(C(=O)N2CCNCC2)cc1N1CCN(C(c2ccccc2)c2ccccc2)CC1)NC1CCCCC1 [Cpd 92, N-cyclohexyl-N′-[2-[4-(diphenylmethyl)-1-piperazinyl]-4-(1-piperazinylcarbonyl)phenyl]-urea] | 1.6
9 | NC(=O)c1ccc(N2CCN(C(c3ccncc3)c3ccc(F)cc3)CC2)c(NC(=O)NC2CCCCC2)c1 (centres unmarked) [Cpd 78] | > 10
10 | C[C@H](NC(=O)Nc1cc(C(N)=O)ccc1N1CCN(C(c2ccccc2)c2ccccc2)CC1)c1ccccc1 [Cpd 11, 4-[4-(diphenylmethyl)-1-piperazinyl]-3-[[[[(1S)-1-phenylethyl]amino]carbonyl]amino]-benzamide] | 8.4
11 | NC(=O)c1ccc(N2CCN(C(c3ccccc3)c3ccccc3)CC2)c(NC(=O)Nc2ccc(F)cc2)c1 [Cpd 13, 4-[4-(diphenylmethyl)-1-piperazinyl]-3-[[[(4-fluorophenyl)amino]carbonyl]amino]-benzamide] | 1.3
12 | O=C(Nc1cc(C(=O)N2CCNCC2)ccc1N1CCN(C(c2ccccc2)c2ccc(Cl)cc2)CC1)NC1CCCCC1 (centres unmarked) [Cpd 45, N-[2-[4-[(4-chlorophenyl)phenylmethyl]-1-piperazinyl]-5-(1-piperazinylcarbonyl)phenyl]-N′-cyclohexyl-urea] | 2.2
13 | C[C@H](NC(=O)Nc1cc(C(=O)N2CCNCC2)ccc1N1CCN(C(c2ccccc2)c2ccccc2)CC1)c1ccccc1 [Cpd 64, N-[2-[4-(diphenylmethyl)-1-piperazinyl]-5-(1-piperazinylcarbonyl)phenyl]-N′-[(1S)-1-phenylethyl]-urea] | > 25
14 | O=C(Nc1ccccc1)Nc1cc(C(=O)N2CCNCC2)ccc1N1CCN(Cc2ccccc2)CC1 [Cpd 50, N-phenyl-N′-[2-[4-(phenylmethyl)-1-piperazinyl]-5-(1-piperazinylcarbonyl)phenyl]-urea] | > 25
15 | NC(=O)c1ccc(N2CCN(C(c3ccccc3)c3ccccc3)CC2)c(NC(=O)Nc2ccc([N+](=O)[O-])cc2)c1 [Cpd 5, 4-[4-(diphenylmethyl)-1-piperazinyl]-3-[[[(4-nitrophenyl)amino]carbonyl]amino]-benzamide] | 9.9
16 | NC(=O)c1ccc(N2CCN(C(c3ccc(F)cc3)c3ccc(F)cc3)CC2)c(NC(=O)Nc2ccccc2)c1 [Cpd 3, 4-[4-[bis(4-fluorophenyl)methyl]-1-piperazinyl]-3-[[(phenylamino)carbonyl]amino]-benzamide] | 1.5
17 | O=C(Nc1ccccc1)Nc1ccc(C(=O)N2CCNCC2)cc1N1CCN(C(c2ccccc2)c2ccccc2)CC1 [Cpd 91, N-[2-[4-(diphenylmethyl)-1-piperazinyl]-4-(1-piperazinylcarbonyl)phenyl]-N′-phenyl-urea] | 1.3
18 | O=C(Nc1cc(C(=O)N2CCNCC2)ccc1N1CCN(C2CCCCC2)CC1)NC1CCCCC1 [Cpd 54, N-cyclohexyl-N′-[2-(4-cyclohexyl-1-piperazinyl)-5-(1-piperazinylcarbonyl)phenyl]-urea] | > 25
19 | O=C(Nc1cc(C(=O)N2CCNCC2)ccc1N1CCN(C(c2ccccc2)c2ccccc2)CC1)NC1CCCC1 [Cpd 63, N-cyclopentyl-N′-[2-[4-(diphenylmethyl)-1-piperazinyl]-5-(1-piperazinylcarbonyl)phenyl]-urea] | 13.7
20 | CN1CCN(C(=O)c2ccc(N3CCN(C(c4ccccc4)c4ccccc4)CC3)c(NC(=O)Nc3ccccc3)c2)CC1 [Cpd 23, N-[2-[4-(diphenylmethyl)-1-piperazinyl]-5-[(4-methyl-1-piperazinyl)carbonyl]phenyl]-N′-phenylurea] | 4.9
21 | Cc1ccc(NC(=O)Nc2cc(C(N)=O)ccc2N2CCN(C(c3ccc(F)cc3)c3ccc(F)cc3)CC2)c(C)c1 [Cpd 15, 4-[4-[bis(4-fluorophenyl)methyl]-1-piperazinyl]-3-[[[(2,4-dimethylphenyl)amino]carbonyl]amino]-benzamide] | 4.8
22 | NC(=O)c1ccc(N2CCN(C(c3ccc(F)cc3)c3ccc(F)cc3)CC2)c(NC(=O)Nc2ccccc2F)c1 [Cpd 4, 4-[4-[bis(4-fluorophenyl)methyl]-1-piperazinyl]-3-[[[(2-fluorophenyl)amino]carbonyl]amino]-benzamide] | 2.1
23 | O=C(Nc1cc(C(=O)N2CCNCC2)ccc1N1CCN(Cc2ccccc2)CC1)NC1CCCCC1 [Cpd 52, N-cyclohexyl-N′-[2-[4-(phenylmethyl)-1-piperazinyl]-5-(1-piperazinylcarbonyl)phenyl]-urea] | > 25
24 | COc1ccccc1N1CCN(c2ccc(C(=O)N3CCNCC3)cc2NC(=O)Nc2ccccc2)CC1 [Cpd 49, N-[2-[4-(2-methoxyphenyl)-1-piperazinyl]-5-(1-piperazinylcarbonyl)phenyl]-N′-phenylurea] | > 25
25 | O=C(Nc1ccccc1)Nc1cc(C(=O)N2CCNCC2)ccc1N1CCN(C2c3ccccc3-c3ccccc32)CC1 [Cpd 44, N-[2-[4-(9H-fluoren-9-yl)-1-piperazinyl]-5-(1-piperazinylcarbonyl)phenyl]-N′-phenylurea] | 2.3
26 | CN1CCN(C(=O)c2ccc(N3CCN(C(c4ccccc4)c4ccccc4)CC3)c(NC(=O)NC3CCCCC3)c2)CC1 [Cpd 28, N-cyclohexyl-N′-[2-[4-(diphenylmethyl)-1-piperazinyl]-5-[(4-methyl-1-piperazinyl)carbonyl]-phenyl]urea] | 5.6
